In patent publication US8008487B2, “Substituted thieno[2,3-D]pyrimidines as fungicides” (priority 2004, dated 2011):

Experiments:
Assay type in all cases: in vivo
Colletotricum lagenarium = experiment: Cucumber Anthracnose (COLLLA), whole-plant fungicide test; details: one-day protectant test; for pest or weed control at 200 ppm: foliar
Erysiphe cichoracaerum = experiment: Cucumber Powdery Mildew (ERYSCI), whole-plant fungicide test; details: 200 ppm on foliage, one-day protectant test; for pest or weed control at 200 ppm: Erysiphe, foliar, 24 h, read-out: ERYSCI percent control of disease
[1] = system: Puccinia recondita tritici; experiment: Leaf Rust of Wheat (PUCCRT), whole-plant fungicide test; details: one-day protectant test; for pest or weed control at 200 ppm / pest or weed control at 100 ppm: Puccinia recondita, 24 h, read-out: PUCCRT percent control of disease; for pest or weed control at 200 ppm: foliar; for pest or weed control at 100 ppm: 100 ppm (footnote a)
Phytophthora infestans = experiment: whole plant or invertebrate; details: for pest or weed control at 200 ppm: foliar, read-out: PHYTIN percent control of disease, 200 ppm on foliage, tomato, one-day protectant test
Leptosphaeria nodorum = experiment: Glume Blotch of Wheat (LEPTNO), whole-plant fungicide test; details: one-day protectant test; for pest or weed control at 200 ppm / pest or weed control at 100 ppm: Parastagonospora nodorum, 24 h, read-out: LEPTNO percent control of disease; for pest or weed control at 200 ppm: foliar; for pest or weed control at 100 ppm: 100 ppm (footnote a)
Magnaporthe grisea = experiment: whole plant or invertebrate; details: for pest or weed control at 200 ppm: Pyricularia oryzae, in Oryza sativa, foliar, 24 h, read-out: PYRIOR percent control of disease, 200 ppm on foliage, rice, one-day protectant test
[2] = Cucumis sativus, 24 h, 200 ppm on foliage, read-out: COLLLA percent control of disease
[3] = Phytophthora infestans, in Solanum lycopersicum, 24 h

SMILES | pest or weed control at 200 ppm (Colletotricum lagenarium; [2]) [%] | pest or weed control at 200 ppm (Erysiphe cichoracaerum) [%] | pest or weed control at 200 ppm ([1]; 200 ppm on foliage) [%] | pest or weed control at 200 ppm (Phytophthora infestans; [3]) [%] | pest or weed control at 200 ppm (Leptosphaeria nodorum; 200 ppm on foliage) [%] | pest or weed control at 200 ppm (Magnaporthe grisea) [%] | further results
CC(Nc1ncnc2scc(Cl)c12)c1ccc(OC(F)(F)F)cc1 (stereo not drawn) [Compound 82] | 0 to 49 | 80 to 100 | 80 to 100 | 0 to 49 | 0 to 49 | – | –
CC(Nc1ncnc2scc(Cl)c12)c1ccc(OCC(F)(F)F)cc1 (stereo not drawn) [Compound 73] | 80 to 100 | 80 to 100 | 80 to 100 | 0 to 49 | 50 to 79 | 80 to 100 | –
CC(Nc1ncnc2scc(Cl)c12)c1cccnc1Cl (stereo not drawn) [Compound 80] | 50 to 79 | 80 to 100 | 80 to 100 | 0 to 49 | 0 to 49 | 80 to 100 | –
COc1ncc(C(C)Nc2ncnc3scc(Cl)c23)s1 (stereo not drawn) [Compound 72] | 0 to 49 | 80 to 100 | 80 to 100 | 0 to 49 | 0 to 49 | 80 to 100 | –
CC(Nc1ncnc2scc(Cl)c12)C1CC1COCC(F)(F)F (stereo not drawn) [Compound 87] | 0 to 49 | 80 to 100 | 80 to 100 | 0 to 49 | 0 to 49 | 80 to 100 | –
Clc1csc2ncnc(NCCc3ccc4ccccc4c3)c12 [Compound 2a] | 0 to 49 | 80 to 100 | 80 to 100 | 80 to 100 | 0 to 49 | 80 to 100 | –
COc1cc(F)ccc1C(C)Nc1ncnc2scc(Cl)c12 (stereo not drawn) [Compound 83] | 0 to 49 | 80 to 100 | 80 to 100 | 0 to 49 | 0 to 49 | – | –
CC(Nc1ncnc2scc(Cl)c12)c1ccc(C(C)(C)C)cc1 (stereo not drawn) [Compound 91] | – | 80 to 100 | 80 to 100 | – | 80 to 100 | 80 to 100 | pest or weed control at 100 ppm (Colletotricum lagenarium; Cucumis sativus, 24 h, 100 ppm (footnote a), read-out: COLLLA percent control of disease): 50 to 79%; pest or weed control at 100 ppm (Phytophthora infestans; Phytophthora infestans, in Solanum lycopersicum, 24 h, read-out: PHYTIN percent control of disease, 100 ppm (footnote a), tomato, one-day protectant test): 50 to 79%
Clc1csc2ncnc(N3CCOCC3c3ccccc3)c12 (stereo not drawn) [Compound 92] | 0 to 49 | 0 to 49 | 0 to 49 | 0 to 49 | 0 to 49 | 80 to 100 | –
CC(C)(C)OC(=O)c1ccc(CNc2ncnc3scc(Cl)c23)cc1 [Compound 4a] | 0 to 49 | 0 to 49 | 0 to 49 | 0 to 49 | 0 to 49 | 50 to 79 | –
CC(Nc1ncnc2scc(Cl)c12)c1ccc(C(F)(F)F)cc1 (stereo not drawn) [Compound 26] | 0 to 49 | 80 to 100 | 80 to 100 | 0 to 49 | 80 to 100 | 80 to 100 | –
CC(C)c1ccc(C(C)Nc2ncnc3scc(Cl)c23)cc1 (stereo not drawn) [Compound 25] | – | – | – | – | – | – | COLLLA percent control of disease (Colletotricum lagenarium; 200 ppm on foliage): * (* is 0-49 percent control of disease); ERYSCI percent control of disease (Erysiphe cichoracaerum): *** (*** is 80-100 percent control of disease); PUCCRT percent control of disease ([1]; 200 ppm on foliage): *** (*** is 80-100 percent control of disease); PHYTIN percent control of disease (Phytophthora infestans; 200 ppm on foliage, tomato, one-day protectant test): *** (*** is 80-100 percent control of disease); PYRIOR percent control of disease (Magnaporthe grisea; 200 ppm on foliage, rice, one-day protectant test): *** (*** is 80-100 percent control of disease); LEPTNO percent control of disease (Leptosphaeria nodorum; 200 ppm on foliage): *** (*** is 80-100 percent control of disease)
COc1ccc(C(C)Nc2ncnc3scc(I)c23)cc1 (stereo not drawn) [Compound 70, (5-Iodothieno[2,3-d]pyrimidin-4-yl)-[1-(4-methoxyphenyl)ethyl]amine] | 0 to 49 | 0 to 49 | 0 to 49 | 0 to 49 | 0 to 49 | 50 to 79 | –
COc1ccc(C(C)Nc2ncnc3scc(SC)c23)cc1 (stereo not drawn) [Compound 88, 5-Methylthio-N-[1-(4-methoxyphenyl)ethyl]thieno[2,3-d]pyrimidin-4-amine] | 0 to 49 | 0 to 49 | 80 to 100 | 0 to 49 | 0 to 49 | 80 to 100 | –
CC(Nc1ncnc2scc(Cl)c12)c1ccc(OCCF)nc1 (stereo not drawn) [Compound 75] | 50 to 79 | 80 to 100 | 80 to 100 | 0 to 49 | 0 to 49 | 80 to 100 | –
CC(Nc1ncnc2scc(Cl)c12)c1ccc(OCC(F)F)nc1 (stereo not drawn) [Compound 74] | 80 to 100 | 80 to 100 | 80 to 100 | 0 to 49 | 80 to 100 | 80 to 100 | –
CC(Nc1ncnc2scc(Br)c12)c1cnc(OCC(F)(F)F)nc1 (stereo not drawn) [Compound 67] | 0 to 49 | 0 to 49 | 80 to 100 | 0 to 49 | 0 to 49 | 0 to 49 | –
COc1ccc(OCCNc2ncnc3scc(Cl)c23)cc1 [Compound 64] | 0 to 49 | 0 to 49 | 80 to 100 | 0 to 49 | 0 to 49 | 80 to 100 | –
COCC1CC1C(C)Nc1ncnc2scc(Cl)c12 (stereo not drawn) [Compound 81] | – | – | – | – | – | – | pest or weed control at 100 ppm [1]: 80 to 100%
COc1ccc(C(C)Nc2ncnc3scc(Cl)c23)cc1 (stereo not drawn) [Compound 27] | 0 to 49 | 80 to 100 | 80 to 100 | 0 to 49 | 50 to 79 | 80 to 100 | –
CC(Nc1ncnc2scc(Cl)c12)c1ccc(OCC(F)(F)F)nc1 (stereo not drawn) [Compound 84] | – | – | – | – | – | – | pest or weed control at 100 ppm [1]: 80 to 100%
Clc1csc2ncnc(N3CCCCC3c3ccccc3)c12 (stereo not drawn) [Compound 93] | 0 to 49 | 0 to 49 | 0 to 49 | 0 to 49 | 0 to 49 | 80 to 100 | –
CC(Nc1ncnc2scc(Cl)c12)c1ccc2oc(CC(C)(C)C)nc2c1 (stereo not drawn) [Compound 1a] | – | – | – | – | – | – | pest or weed control at 100 ppm [1]: 80 to 100%; pest or weed control at 100 ppm (Leptosphaeria nodorum): 50 to 79%
CCC(Nc1ncnc2scc(Cl)c12)c1ccc(OC)nc1 (stereo not drawn) [Compound 79] | 0 to 49 | 0 to 49 | 80 to 100 | 0 to 49 | 0 to 49 | 80 to 100 | –
COc1ccc(COCC2CC2C(C)Nc2ncnc3scc(Cl)c23)cc1 (stereo not drawn) [Compound 85] | 0 to 49 | 80 to 100 | 80 to 100 | 80 to 100 | 0 to 49 | – | –
Clc1csc2ncnc(NCCc3ccc(N4CCOCC4)cc3)c12 [Compound 8a] | – | – | – | – | – | – | pest or weed control at 100 ppm [1]: 80 to 100%; pest or weed control at 100 ppm (Leptosphaeria nodorum): 50 to 79%
